Measurements as given in patent publication US8758767B2, “Antigens targeted by prevalent pathogennic T cells in type 1 diabetes and uses thereof” (Albert Einstein College of Medicine of Yeshiva University, priority 2003, dated 2014).

How the values were obtained:
[1] = test system: CD8+ cells propagated from islets of NOD mice; assay: IFN-γ secretion by islet-derived CD8+ T-cells in response to IGRP peptides; type: cell-based, mouse; conditions: peptide 10 μM, pre-diabetic or acutely diabetic NOD mice
Source text: Islet-derived CD8+ T-cells from peptide-treated or unmanipulated NOD mice were generated by culturing pancreatic islets in complete media (CM: RPMI 1640 media containing 10% fetal bovine serum), containing 0.5 U/ml Takeda rhIL-2 (10-50 islets/well in 24-well plates). The in vivo-activated, IL-2R+ lymphocytes migrating from islets into the culture media were used in functional assays within 6-9 days of islet isolation (Amrani et al., 2000; Anderson et al., 1999).
(§1) Naïve splenic CD8+ T-cells from 8.3-NOD mice (2×10^4/well) were incubated with peptide-pulsed (0.001, 0.01, 0.1, 1 and/or 10 μM) γ-irradiated NOD splenocytes (10^5/well) in 96-well plates for 48 hours at 37° C. Short-term islet-derived T-cell lines from peptide-treated or unmanipulated NOD mice (adjusted at 2×10^4 CD8+ T-cells/well) were tested the same way, but using 10 μM of peptide. The supernatants (100 μl/well) were assayed in duplicate for IL-2, IL-4, and/or IFN-γ content by ELISA using commercially available kits (Genzyme Diagnostics, Cambridge, Mass.).

[2] = test system: CD8+ cells derived from pancreatic islets of wild-type NOD mice; assay: Tetramer staining and avidity of NOD islet-derived CD8+ T-cells (Example 3); type: cell-based, mouse; conditions: FIG. 9B, at least some animals
Procedure: Tetramers were prepared and used as described in (Amrani et al., 2000). Hand-picked pancreatic islets from individual mice were cultured in complete media supplemented with 0.5 U/ml of Takeda rhIL-2 for 7-9 days. T-cells (10^6 per 20 μl) were then stained for 45 minutes on ice in 20 μl of wash media (0.2% sodium bicarbonate, 0.1% sodium azide and 2% FBS in RPMI-1640) containing anti-CD8-FITC (clone YTS169.4; 0.5 μg) and tetramer (85.5 nM). After washing, the cells were resuspended in wash media and analyzed with a flow cytometer (Becton Dickinson). For the analysis of tetramer staining at equilibrium, T-cells were stained for 2 hours at room temperature with 20 μl of wash media (0.2% sodium bicarbonate, 0.1% sodium azide and 2% FBS in RPMI-1640) containing anti-CD8α-FITC (clone YTS169.4; 0.5 μg) and different concentrations of tetramers (8.55, 17.1, 42.75 and 85.5 nM). After washing, cells were resuspended in 100 μl of wash media, fixed in 0.4% paraformaldehide and analyzed with a flow cytometer. The apparent Kd values were determined by plotting the negative reciprocal of the slope of the line fit to Scatchard plots of fluorescence units (median of CD8+ population tetramer staining)/nM versus fluorescence units.

female NOD mice = assay: Repeated peptide treatment of female NOD mice, diabetes development and islet-associated CD8+ T-cells; type: in vivo, mouse; conditions: for T-cell responses against IGRP epitopes of islet-derived CD8+ T-cells of treated mice: for IGRP206-214 treatment: other IGRP epitopes; for absolute number of NRP-V7-reactive T-cells in the islets: NRP-A7 50 μg/injection vs. TUM-treated mice; for avidity of NRP-V7 tetramer binding by islet-associated CD8+ cells of treated mice: NRP-I4 100 μg/injection, NRP-A7 50 μg/injection, vs TUM-treated mice; for protection from diabetes by chronic treatment (discussion summary): intermediate doses NRP-A7, high doses NRP-I4, low or high doses NRP-V7, high doses IGRP206-214
Procedure: Cohorts of 3-to-4 week-old female NOD mice were injected with 1-100 μg of peptide in PBS intraperitoneally. This was repeated every 2 weeks until the 7-8th week, and every 3 weeks thereafter. Mice were monitored for development of hyperglycemia until at least the 28th week of age. The 8.3-CD8+ T-cell tolerogenic activity of APLs was determined by treating 8-15 wk-old 8.3-NOD mice with one i.p. injection of 100 μg of peptide. […] Mice were sacrificed a week after treatment, and their spleens analyzed for presence of 8.3-CD8+ T-cells by flow cytometry.
We next investigated whether the anti-diabetogenic activity of the above APLs was a function of “avidity”, as defined not only by the affinity of individual peptide/MHC complexes for specific TCRs, but also by the absolute number of peptide/MHC complexes that are available for recognition (i.e. dose of peptide). This was done by treating cohorts of female NOD mice with repeated injections of TUM (negative control), NRP-I4, NRP-A7 and NRP-V7 (in PBS) over a wide dose range, and by following the mice for development of diabetes (FIG. 7A, top). Starting at 3-4 weeks of age, mice received one injection of peptide i.p. every 2 (first three doses) or 3 weeks after initiation of treatment. Mice were sacrificed at diabetes onset or at the end of the follow-up period (28-32 weeks), to investigate the effects of treatment on the size and tetramer-binding avidity of the islet-associated IGRP206-214-reactive CD8+ T-cell subpopulation (FIG. 7A, bottom).

NOD female mice = assay: Protection of NOD mice from type 1 diabetes (Example 2); type: in vivo, mouse; conditions: for mice that developed diabetes: 100 micrograms peptide intraperitoneally from 3.5 weeks of age, read at ~25 weeks-old
Procedure: Ten NOD female mice were treated with 100 micrograms of IGRP206-214 peptide (in phosphate-buffered saline) intraperitoneally, starting at 3.5 weeks of age. Forty mice were used as controls. Each control mouse was treated with the TUM peptide ([…] NO:15). The mice received one injection of peptide every two weeks for the first three injections, and then one injection every three weeks thereafter. At 25 weeks-old, two (20%) of the IGRP206-214 mice developed diabetes, vs. 26 control mice ( 65%). […] There were no significant differences in interferon-γ production vs. cells stimulated with the negative control peptide TUM. In one of these two mice, the islets contained T-cells that responded to two IGRP peptides other than IGRP206-214.

H-2K^d = target: T1, H-2K^d (Mus musculus, UniProt P01902); assay: H-2K^d stabilization assay on RMA-S/K^d cells (Example 1); type: binding; conditions: FIG. 3, mean fluorescence intensity of H-2K^d
T1 construct: expressed in transfected cells; host or cells: RMA-S/K^d cells
T1 sequence (P01902 22-368): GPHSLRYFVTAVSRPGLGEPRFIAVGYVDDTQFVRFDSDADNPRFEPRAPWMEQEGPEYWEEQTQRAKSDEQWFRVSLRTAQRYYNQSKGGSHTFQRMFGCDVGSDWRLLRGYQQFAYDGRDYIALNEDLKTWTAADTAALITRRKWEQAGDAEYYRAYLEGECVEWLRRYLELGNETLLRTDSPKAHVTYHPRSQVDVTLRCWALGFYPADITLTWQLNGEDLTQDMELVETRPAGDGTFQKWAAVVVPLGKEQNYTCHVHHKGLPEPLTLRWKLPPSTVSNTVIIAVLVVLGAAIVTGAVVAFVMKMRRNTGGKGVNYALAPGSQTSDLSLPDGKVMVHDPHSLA
T1 sequence (P01887 21-119 partner): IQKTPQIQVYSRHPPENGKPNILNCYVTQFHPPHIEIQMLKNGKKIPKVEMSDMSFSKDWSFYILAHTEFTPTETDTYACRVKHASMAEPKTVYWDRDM
Procedure: RMA-S/K^d cells, cultured overnight at 28° C., were pulsed with peptides in complete DMEM for 1 h at 28° C., incubated at 37° C. for 3 h, washed, stained with anti-H-2K^d monoclonal antibody SF1-1.1, counter-stained with FITC-conjugated polyclonal goat anti-mouse antibody, and analyzed by flow cytometry. Data were calculated by subtracting mean fluorescence intensity of H-2K^d on non-peptide-pulsed cells from that on peptide-pulsed cells.

8.3 CTL = assay: Epitope reconstitution 51Cr-release cytotoxicity assay, peptide-pulsed RMA-S/K^d target cells; type: cell-based, mouse; conditions: peptide-pulsed RMA-S/K^d targets
Procedure: 8.3 CTL were generated by culturing splenocytes from 8.3-NOD mice with mitomycin C-treated NOD splenocytes pulsed with NRP-A7 peptide as described (DiLorenzo et al, 2002). CTL were used in 16 h ^51Cr-release cytotoxicity assays to test for recognition of peptide-pulsed RMA-S/K^d target cells (provided by M. Bevan, University of Washington, Seattle, Wash., USA) at an effector to target ratio of 40:1 as described (DiLorenzo et al., 2002). Synthetic peptides were used at concentrations as indicated in the figures, and 7×10^8, 6×10^8, and 2×10^9 NIT-1-cell-equivalents of peptide were used for assays of first-, second-, and third-dimension HPLC fractions, respectively.

8.3-CD8+ T-cells = assay: Proliferation and cytokine secretion of naive splenic 8.3-CD8+ T-cells with peptide-pulsed NOD splenocytes; type: cell-based, mouse; conditions: for agonistic activity on 8.3-CD8+ T-cells: FIG. 5, peptide 0.01-1 μM
Procedure: Naïve or NRP-A7-differentiated (see below) splenic CD8+ T-cells from 8.3-NOD mice (2×10^4/well) were incubated, in duplicate, with peptide-pulsed (0.01, 0.1 and 1 μM), γ-irradiated (3,000 rad) NOD splenocytes (10^5/well) for 3 days at 37° C. in 5% CO2. Cultures were pulsed with 1 μCi of (^3H)-thymidine during the last 18 hours of culture and harvested.
as §1

AI12.B1.3 TCR = assay: TCR transfectant peptide recognition, IL-2 release (58 α−β− cells, RMA-S/K^d presenters); type: cell-based, mouse; conditions: FIG. 2
Source text: (§2) T cell receptors from the previously isolated NOD-derived β cell-autoreactive class I MHC-restricted T cell clones AI4, AI12.B1.1, AI12.B1.2, AI12.B1.3, AI15.A10, AI15.F5 (DiLorenzo et al., 1998), and 8.3 (Verdaguer et al., 1997) were expressed in the TCR^− T cell hybridoma 58α^−β^− (engineered to express the TCR ζ chain and CD8αβ and provided by H.-C. Chang, Dana Farber, Boston, Mass., USA) as described (Serreze et al., 2001). TCR expression was verified by flow cytometric analysis of growing clones using an antibody to CD3ε (145-2C11). RMA-S/K^d cells incubated overnight at 28° C. were used to present exogenously added synthetic peptides at concentrations as indicated in the figures. Peptide recognition by the TCR transfectants was measured by IL-2 production as previously described (Serreze et al., 2001).

AI15.F5 TCR = assay: as above; type: cell-based, mouse; conditions: FIG. 2
Source text: as §2

[3] = target: IGRP206-214/H-2K^d on antigen-presenting cells (mouse) (UniProt P01902); assay: cell-based or functional assay
[4] = IFN-γ secretion, Table II, FIG. 10A

SFCKSASIP [peptide 72, text numbering of the IGRP library]
mice with islet CD8+ T-cells responding to the peptide (IFN-γ secretion) [1]: a significant number of mice also mounted responses
presence of peptide-reactive CD8+ T-cells in islets by tetramers [2]: confirmed the presence

KYQAVTTTL [TUM, reference compound]
T-cell responses against IGRP epitopes of islet-derived CD8+ T-cells of treated mice (female NOD mice; [4]): did not significantly increase
absolute number of NRP-V7-reactive T-cells in the islets (female NOD mice): 1×10^5±0.3
mice that developed diabetes (NOD female mice): ~65%

LYLVCGERG [INS B15-23]
binding to H-2K^d (H-2K^d): barely detectable even at the highest peptide concentration tested

LYLVCGERI [INS-I9]
binding to H-2K^d (H-2K^d): improved binding to H-2K^d

KYCLITIFL [G6Pase, reference compound]
recognition by 8.3 CTL (8.3 CTL): not recognized by 8.3 CTL

KYNIANWFL [NRP-I4]
triggering IFN-γ secretion by naive 8.3-CD8+ T-cells (8.3-CD8+ T-cells; FIG. 5): quite efficient
agonistic activity on 8.3-CD8+ T-cells (8.3-CD8+ T-cells): partial agonist
inducing other responses of naive 8.3-CD8+ T-cells (8.3-CD8+ T-cells; FIG. 5, proliferation, IL-2): significantly less efficient than NRP-A7
anti-diabetogenic activity (female NOD mice; 100 μg/injection): highly anti-diabetogenic
anti-diabetogenic activity (female NOD mice; <20 μg/injection): not protective at all
avidity of NRP-V7 tetramer binding by islet-associated CD8+ cells of treated mice (female NOD mice): significantly lower avidity
protection from diabetes by chronic treatment (discussion summary) (female NOD mice): near complete protection from diabetes

VYLKTNVFL [IGRP206-214]
mice with islet CD8+ T-cells responding to the peptide (IFN-γ secretion) [1]: most mice
binding to H-2K^d (H-2K^d): good MEC binding
recognition by 8.3 CTL (8.3 CTL): is the natural β cell peptide recognized by 8.3
age at onset of diabetes (female NOD mice; 75-100 μg/injection): delayed
incidence of diabetes (female NOD mice; 75-100 μg/injection): did not significantly reduce
intra-islet IGRP206-214-reactive CD8+ T-cell subpopulation (female NOD mice; 75-100 μg/injection, flow cytometry and functional assays): near complete deletion
anti-IGRP206-214 response of islet-derived CD8+ T-cells of treated mice (female NOD mice; [4]): reduced both the frequency and magnitude
T-cell responses against IGRP epitopes of islet-derived CD8+ T-cells of treated mice (female NOD mice; [4]): increased the frequency and magnitude
protection from diabetes by chronic treatment (discussion summary) (female NOD mice): only afforded marginal protection from disease
mice that developed diabetes (NOD female mice): 20%
IGRP206-214-reactive T-cells in islets of treated mice that developed diabetes (NOD female mice; NRP-V7/K^d tetramer staining): did not have IGRP206-214-reactive T-cells in islets
recognition by AI12.B1.3 (IL-2 release) (AI12.B1.3 TCR): recognized
recognition by AI15.F5 (IL-2 release) (AI15.F5 TCR): responded

TYYGFLNFM [peptide 39, text numbering of the IGRP library]
mice with islet CD8+ T-cells responding to the peptide (IFN-γ secretion) [1]: a significant number of mice also mounted responses
presence of peptide-reactive CD8+ T-cells in islets by tetramers [2]: confirmed the presence

YLKTNVFLF [IGRP207-215]
cross-reactivity with IGRP206-214, ability to elicit 8.3-CD8+ T-cell responses (8.3-CD8+ T-cells; data not shown): cross-reactive with IGRP206-214
mice with islet CD8+ T-cells responding to the peptide (IFN-γ secretion) [1]: most mice

8.3 T cell receptor (TCR)
half-maximal activity, 51Cr-release assay with 8.3 CTL on peptide-pulsed RMA-S/K^d cells [3]: 50 µM

KYNKANAFL [NRP-A7]
agonistic activity on 8.3-CD8+ T-cells (8.3-CD8+ T-cells): agonist
anti-diabetogenic activity (female NOD mice; 50 μg/injection): protected mice from diabetes
anti-diabetogenic activity (female NOD mice; 100 μg/injection): ineffective
percentages and absolute numbers of NRP-V7-reactive CD8+ cells in the islets (female NOD mice; 100 μg/injection): significantly reduced numbers
absolute number of NRP-V7-reactive T-cells in the islets (female NOD mice): 0.6×10^5±0.3
avidity of NRP-V7 tetramer binding by islet-associated CD8+ cells of treated mice (female NOD mice): accumulation of low avidity IGRP206-214-reactive CD8+ T-cells within islets
protection from diabetes by chronic treatment (discussion summary) (female NOD mice): near complete protection from diabetes
recognition by AI12.B1.3 (IL-2 release) (AI12.B1.3 TCR): recognized
recognition by AI15.F5 (IL-2 release) (AI15.F5 TCR): did not recognize
